We go through four molecules from PMC7766124, “Improved Cell Selectivity of Pseudin-2 via Substitution in the Leucine-Zipper Motif: In Vitro and In Vivo Antifungal Activity” (Antibiotics, 2020).

≈ marks a conversion by molar mass, not a printed value. Read-outs that look alike come from different tables or passages of the source. No end group written: not given here.

The test system of one series is C. parapsilosis. The format is cell-based, C. parapsilosis (CCARM 14016). The following applies: 36 h. The text has this: (§1) Aspergillus flavus (KCTC 6905), A. fumigatus (KCTC 6145), Fusarium moniliforme (KCTC 6149), F. oxysporum (KCTC 16909), C. albicans (KCTC 7270), C. krusei (CCARM 14017), C. parapsilosis (CCARM 14016), C. tropicalis (KCTC 7221), and T. beigelii (KCTC 7707) were obtained from the Korea Collection for Type Cultures (KCTC) and Culture Collection of Antimicrobial Resistant Microbes (CCARM). Mold and yeast fungi were pre-grown on potato dextrose (PD) and yeast extract peptone dextrose (YPD) agars, respectively.
(§2) Antifungal activity of peptides was performed by microtiter plate assays. Fungal conidia from four-day-old molds were collected using 0.08% Triton X-100 (v/v), and pre-cultivated yeast cells were adjusted to 2 × 10^4 spores/mL in 10 mM sodium phosphate buffer (SP, pH 7.2) or 10 mM 2-(N-morpholino)ethanesulfonic acid (MES) buffer (pH 5.5) supplemented with 20% culture medium, followed by addition to peptide solutions (0.25, 0.5, 1, 1.5, 2, 4, 6, 8, 12, 16, 32, 48, and 64 µM) in 96-well microtiter plates. After incubation for 36 h at 28 °C, the hyphal growth of conidia and the proliferation of yeast cells were observed under a light microscope. All assays were performed in triplicate. The MIC values were defined as the lowest concentration of samples that reduced fungal germination (for mold) or cell proliferation (for yeast) by more than 90% [34].

The subject of another series is mouse erythrocytes. Put plainly: Hemolytic assay. The format is cell-based. The conditions noted are these: 64 µM peptide, 8% (v/v) mRBCs, 37 °C, 2 h (method) / 4 h (figure legend). How it is done: Mouse blood was collected into sodium heparin-coated tubes (BD Vacutainer; BD Diagnostics, Oxford, UK). The mRBCs were obtained by centrifugation (800× g, 10 min) and washing with PBS. The washed mRBCs were added to a final concentration of 8% (v/v) in 64 µM peptide solution, followed by incubation for 2 h at 37 °C. After centrifugation, each tube was digitally recorded.

Series [1] is described as follows: Calcein leakage from mammalian-mimic artificial vesicles. The conditions noted are these: mammalian-mimic PC/CH/SM vesicles, 20 μM lipid; peptide/lipid molar ratio 0.1; 100% = 0.03% Triton X-100. The protocol: (§3) The permeability of peptides in calcein-entrapped artificial liposomes was assayed by measuring calcein leakage. The desired mixtures of lipids (PC/PE/PI/ergosterol, 5:4:1:2 and PC/CH/SM, 2:1:1, weight ratio) were dissolved in chloroform at 10 mg/mL, dried in a glass tube under nitrogen, and then lyophilized overnight to remove residual solvent. The dried lipid films were resuspended in 1 mL of dye solution (80 mM calcein, 10 mM HEPES buffer, pH 7.2) at 50 °C and vortexed, followed by freeze-thawing for nine cycles and extrusion with polycarbonate filters (0.2-μm pore-size) using an Avanti Mini-Extruder (Avanti Polar Lipids Inc., Alabaster, AL, USA). Free calcein was removed using PD-10 desalting columns (GE Healthcare Life Science, Seoul, Korea). Calcein-entrapped vesicles of 20 μM lipids were incubated with peptides at concentrations of […], 0.02, 0.05, and 0.1 molar ratio (peptide/lipid) and the fluorescence was assessed at 480 (Ex) and 520 (Em) nm using a microtiter SpectraMax M5 reader (Molecular Devices). Complete (100%) release was achieved by the addition of 0.03% Triton X-100 (v/v).

In another series the test system is T. beigelii. Type of series: cell-based, T. beigelii (KCTC 7707). The conditions noted are these: 36 h.
Excerpt: as §1, §2

The subject of the next series is F. oxysporum. The format is cell-based, F. oxysporum (KCTC 16909). The following applies: 36 h.
Excerpt: as §1, §2

For the next series, the system named is A. flavus. Type of series: cell-based, Aspergillus flavus (KCTC 6905). The conditions noted are these: 36 h.
Excerpt: as §1, §2

The next series concerns C. tropicalis cells. In words: SYTOX Green uptake (membrane permeability). The conditions noted are these: SP buffer pH 7.2, 0.5 μM SYTOX Green, peptides 1-64 µM, monitored 30 min. Type of series: cell-based. The protocol:
C. tropicalis cells pre-grown at 28 °C were washed and suspended (2 × 10^6 cells/mL) in SP buffer (pH 7.2). The cells were pre-incubated with SYTOX Green (final concentration of 0.5 μM) for 15 min in the dark, followed by adding two-fold serial dilutions of peptides at concentrations of 1 to 64 µM. The fluorescence intensity was monitored for 30 min at 485 (Ex) and 520 (Em) nm using a microtiter SpectraMax M5 reader (Molecular Devices, San Jose, CA, USA).

In the next series the test system is A. fumigatus. Type of series: cell-based, A. fumigatus (KCTC 6145). The following applies: 36 h.
Excerpt: as §1, §2

Series [2] can be described thus: Calcein leakage from fungus-mimic artificial vesicles. The conditions noted are these: fungus-mimic PC/PE/PI/ergosterol vesicles, 20 μM lipid; peptide/lipid molar ratio 0.05; 100% = 0.03% Triton X-100; three independent experiments. The protocol: as §3
The next series has as its system C. tropicalis. The format is cell-based, C. tropicalis (KCTC 7221). The conditions noted are these: 36 h.
Excerpt: as §1, §2

For the next series, the system named is C. albicans. The format is cell-based, C. albicans (KCTC 7270). The conditions noted are these: 36 h.
Excerpt: as §1, §2

The subject of the next series is F. moniliforme. The format is cell-based, Fusarium moniliforme (KCTC 6149). The conditions noted are these: 36 h.
Excerpt: as §1, §2

The subject of another series is C. krusei. The format is cell-based, C. krusei (CCARM 14017). The conditions noted are these: 36 h.
Excerpt: as §1, §2

Another series has as its system HaCaT cells. Put plainly: Cytotoxicity, XTT cell viability assay. The following applies: peptides 4-256 µM, 24 h incubation, triplicate. The format is cell-based, human. How it is done:
Cell viability was assessed using sodium XTT assays. HaCaT (human immortalized keratinocytes) cells were cultured in Dulbecco’s modified Eagle medium (DMEM; ThermoFisher Scientific, Gibco, Waltman, MA, USA) supplemented with antibiotic-antimycotic (ThermoFisher Scientific, Gibco) and 10% fetal bovine serum (FBS; ThermoFisher Scientific, Gibco) at 37 °C in a humidified chamber containing 5% CO2. The cells were seeded at 5 × 10^4 cells/mL in flat-bottom 96-well microtiter plates in triplicate. Twenty-four hours later, cells were treated with two-fold serial dilutions of peptides (ranging from 256 to 4 µM) in medium, and the cells were further incubated for 24 h. Next, activated-XTT solution was added to each well and the plates were additionally incubated for 4 h. Absorbance in each well was measured at wavelengths of 480 and 650 nm using a microtiter SpectraMax M5 reader (Molecular Devices, Sunnyvale, CA, USA). Triton X-100 (0.1% v/v) and DMEM were used as controls for survival.
(Tetrazolium assays rely on reduction of a dye to a coloured formazan, in cell work by metabolically active cells.)

Setting [3] is: 10 mM sodium phosphate buffer pH 7.2 with 20% culture medium, 28 °C, triplicate.
[4] abbreviates: acidic: 10 mM MES buffer pH 5.5 with 20% culture medium (value in parentheses), 28 °C, triplicate.

As for `CC[C@H](C)[C@H](NC(=O)CN)C(=O)NCC(=O)N[C@@H](C)C(=O)N[C@H](C(=O)N[C@@H](CC(C)C)C(=O)N[C@@H](CCCCN)C(=O)N[C@H](C(=O)N[C@@H](CC(C)C)C(=O)N[C@H](C(=O)N[C@H](C(=O)NCC(=O)N[C@@H](CC(C)C)C(=O)N1CCC[C@H]1C(=O)N[C@@H](C)C(=O)N[C@@H](CC(C)C)C(=O)N[C@H](C(=O)N[C@@H](CO)C(=O)N[C@@H](Cc1c[nH]c2ccccc12)C(=O)N[C@H](C(=O)N[C@@H](CCCCN)C(=O)N[C@@H](CCCNC(=N)N)C(=O)N[C@@H](CCCCN)C(=O)N[C@@H](CCCNC(=N)N)C(=O)N[C@@H](CCC(N)=O)C(=O)N[C@@H](CCC(N)=O)C(N)=O)[C@@H](C)CC)[C@@H](C)CC)[C@@H](C)O)[C@@H](C)O)C(C)C)C(C)C` [Melittin, reference compound], the MIC was 16 µM (≈ 45.5 µg/mL) against C. parapsilosis (setting [3]); 8 µM (≈ 22.8 µg/mL) in the series on C. parapsilosis (setting [4]); 2 (2) µM against T. beigelii (setting [3]); 2 (2) µM in the series with T. beigelii (setting [4]); 64 µM (≈ 182 µg/mL) against F. oxysporum (setting [3]); 32 µM (≈ 91.1 µg/mL) in the series on F. oxysporum (setting [4]). In addition, the MIC in the series on A. flavus (10 mM sodium phosphate buffer pH 7.2 with 20% culture medium, 28 °C, >90% reduction of germination, triplicate) is on record as 6 µM (≈ 17.1 µg/mL); in the series on A. flavus (setting [4]), 4 µM (≈ 11.4 µg/mL); against A. fumigatus (setting [3]), 6 µM (≈ 17.1 µg/mL); in the series on A. fumigatus (setting [4]) it was 4 µM (≈ 11.4 µg/mL); in the series with C. tropicalis (setting [3]), 16 µM (≈ 45.5 µg/mL); with C. tropicalis (setting [4]) it was 8 µM (≈ 22.8 µg/mL). The MIC is reported as 32 µM (≈ 91.1 µg/mL) against C. albicans (10 mM sodium phosphate buffer pH 7.2 with 20% culture medium, 28 °C, >90% reduction of proliferation, triplicate); 8 µM (≈ 22.8 µg/mL) with C. albicans (setting [4]); 32 (32) µM with F. moniliforme (setting [3]); 32 (32) µM in the series with F. moniliforme (setting [4]); 8 µM (≈ 22.8 µg/mL) with C. krusei (setting [3]); 4 µM (≈ 11.4 µg/mL) in the series on C. krusei (setting [4]). Also, the “hemolytic effects (hemoglobin release, by visualization)” value in the series with mouse erythrocytes is “severe hemolysis”. For the same molecule, the calcein efflux entry in series [1] is given as “significant dye leakage”. Also, the “SYTOX Green fluorescence intensity” value in the series with C. tropicalis cells was “gradual, concentration-dependent increases in fluorescence intensity”. Besides, in [2], the leakage of calcein is 84.1%.
For the molecule GANALKKVAQGIHEAIKLINNHVQ-NH2 [P2-LZ2], the MIC is on record as 64 µM with C. parapsilosis (pH 5.5); 48 µM with C. parapsilosis (pH 7.2); 2 (2) µM against T. beigelii (pH 5.5); 2 (2) µM in the series on T. beigelii (pH 7.2); 16 µM against F. oxysporum (pH 5.5); 2 µM against F. oxysporum (pH 7.2). The MIC is listed as 12 µM against A. flavus (pH 5.5); 32 µM against A. flavus (pH 7.2); 16 µM with A. fumigatus (pH 5.5); 24 µM against A. fumigatus (pH 7.2); 1.5 µM in the series with C. tropicalis (pH 5.5); 2 µM in the series with C. tropicalis (pH 7.2). Further, the MIC with C. albicans (pH 5.5) worked out at 32 µM; in the series on C. albicans (pH 7.2), 4 µM; with F. moniliforme (pH 5.5) it was 16 µM; in the series on F. moniliforme (pH 7.2), 24 µM; in the series on C. krusei (pH 5.5), 4 µM; in the series with C. krusei (pH 7.2), 6 µM. The leakage of calcein in series [2] is 77.0%.
GLNAAKKVFQGAHEAIKLINNHVQ-NH2 [P2-LZ1]: the MIC is > 64 (>64) µM against C. parapsilosis (pH 5.5); > 64 (>64) µM against C. parapsilosis (pH 7.2); 2 (2) µM against T. beigelii (pH 5.5); 2 (2) µM against T. beigelii (pH 7.2); 12 µM against F. oxysporum (pH 5.5); 4 µM against F. oxysporum (pH 7.2). Also, the MIC is listed as 12 µM in the series on A. flavus (pH 5.5); 64 µM with A. flavus (pH 7.2); 16 µM in the series on A. fumigatus (pH 5.5); 64 µM with A. fumigatus (pH 7.2); 2 µM against C. tropicalis (pH 5.5); 4 µM in the series with C. tropicalis (pH 7.2). Moreover, the MIC in the series with C. albicans (pH 5.5) is listed as 32 µM; in the series on C. albicans (pH 7.2) it was 8 µM; with F. moniliforme (pH 5.5) it was 48 (48) µM; against F. moniliforme (pH 7.2), 48 (48) µM; with C. krusei (pH 5.5), 8 (8) µM; in the series on C. krusei (pH 7.2) it was 8 (8) µM. For the same molecule, the “cytotoxic effects against HaCaT cells” value in the series with HaCaT cells is reported as “significant, concentration-dependent cytotoxic effects”. Besides, the leakage of calcein in series [2] is recorded as 81.8%.
For GLNALKKVFQGAHEAIKLANNHVQ-NH2 [P2-LZ3], the MIC is given as >64 (>64) µM in the series with C. parapsilosis (pH 5.5); >64 (>64) µM in the series with C. parapsilosis (pH 7.2); 2 µM in the series with T. beigelii (pH 5.5); 6 µM against T. beigelii (pH 7.2); 16 µM in the series with F. oxysporum (pH 5.5); 4 µM in the series with F. oxysporum (pH 7.2). In addition, the MIC against A. flavus (pH 5.5) was 32 µM; against A. flavus (pH 7.2) it was 64 µM; against A. fumigatus (pH 5.5) it was 16 µM; against A. fumigatus (pH 7.2), 64 µM; in the series with C. tropicalis (pH 5.5), 2 (2) µM; in the series on C. tropicalis (pH 7.2), 2 (2) µM. The MIC with C. albicans (pH 5.5) is given as 16 µM; with C. albicans (pH 7.2) it was 8 µM; against F. moniliforme (pH 5.5) it was 32 µM; against F. moniliforme (pH 7.2) it was 64 µM; in the series with C. krusei (pH 5.5) it was 8 (8) µM; in the series on C. krusei (pH 7.2) it was 8 (8) µM. In addition, in series [2], the leakage of calcein is 48.3%.
